The test system of the test is aldosterone monoacetate. The test can be described thus: Anti-aldosterone activity in surrenalectomized rats (urinary sodium/potassium). It is filed as in vivo, rat (male, Sprague-Dawley). The settings on record: for % inhibition of the activity of 1 μg/kg of aldosterone monoacetate: surrenalectomized male Sprague-Dawley rats, aldosterone 1 μg/kg s.c., 4 hours urine, sodium and potassium; for antialdosterone activity (in words): orally administered. The procedure:
Male rats of the Sprague-Dawley strain weighing about 180 g were surrenalectomized and at that moment, the rats received with their drinking water physiological serum. On the 4th day, the animals were fasted for 16 hours and then received as drinking water water containing 5% glucose. The test product was administered orally at the end of 16 hours in the form of a suspension in 0.25% carboxymethylcellulose. One hour after the administration of the product, they received intraperitoneally a surcharge of aqueous sodium chloride at a rate of 5 ml per 100 g of body weight of […] physiological serum and subcutaneously 1 μg/kg of an alcoholic solution of 2.5% of aldosterone acetate. The animals were placed in diuresis cages without food or drink for 4 hours. At the end of this time, a miction was forced by pressure on the bladder and the volume of urine was adjusted to 50 ml and the amount of sodium and potassium was determined with an autoanalyser. The results expressed as the percentage of inhibition of the activity of 1 μg/kg of aldosterone monoacetate injected subcutaneously with the ratio of [formula] in the surrenalectomized rats is reported in the following Table.

The results in this text go back to patent publication US4136179A, “2,2-Dimethyl-19-nor-steroids” (Roussel Uclaf, priority 1976, dated 1979).

Structures are written as SMILES.

For `CC1(C)CC2=C3C=CC4(C)C(C(=O)CO)CCC4C3CCC2=CC1=O` (stereo not shown) [Example 9, 2,2-dimethyl-19-nor-Δ^4,9,11-pregnatriene-21-ol-3,20-dione], the “antialdosterone activity (in words)” value was “interesting antialdosterone activity”. In addition, for the setting “oral dose 10 mg/kg”, the “% inhibition of the activity of 1 μg/kg of aldosterone monoacetate” value was found to be 91%.

With `CC1(C)CC2C(=CC1=O)CCC1C2CCC2(C)C(C(=O)CO)CCC12` (stereo not shown) [Example 3, 2,2-dimethyl-19-nor-Δ^4-pregnene-21-ol-3,20-dione], the “antialdosterone activity (in words)” value is reported as “interesting antialdosterone activity”. Besides, the “% inhibition of the activity of 1 μg/kg of aldosterone monoacetate” value (oral dose 5 mg/kg) was 50%.
